The structures appear in SMILES notation.

Experiment [1] in a line: heat activated transfer of image dye (yellow coupler Y-1, developer CD-2) through gelatin interlayer to polymeric dye receiver, Status A blue density. The settings on record: coupler Y-1, CD-2. The method, then: (§1) Heat Activated Image Transfer. Dried integral films are laminated with gelatin subbed ESTAR™ film base and passed through a set of heated rollers at 0.635 cm./sec. with roller surface temperatures of 110° C. and a pressure of 140 kPa. The two film bases are separated; the gelatin layers adhere to the gelatin subbed ESTAR™ base and are thus separated from the polymeric dye receiver layer and its support. Status A reflection densitometry is obtained on the polymeric dye-receiver layer coated on a reflective support. These density values determined with the appropriate Status A filter are given in Example 1 in Table III.
Thermal Solvent Test Employing a Yellow Dye Forming Coupler. Three film examples are prepared in a manner analogous to examples 1 and 2 above, using a yellow dye forming coupler, Y-1, and a blue sensitized cubic emulsion in place of M-1 and a green sensitized emulsion, respectively. In this example TS-1 is compared with no added hydroxybenzene compound and with a hydroxybenzene without a hydrogen bond accepting functional group (CS-1). The thermal solvent [drawing 8] test layer is coated at gelatin laydown of 1.40 g/m^2 and a thermal solvent test compound at 1.30 g/m^2. The dye generating layer is coated at 1.40 g/m^2 of gelatin, 0.53 g/m^2 of coupler Y-1 and 0.38 g/m^2 of Ag. The photographic development and thermal processing is as described in example 2. […]

Experiment [2] in a line: heat activated transfer of image dye (yellow coupler Y-1, developer CD-3) through gelatin interlayer to polymeric dye receiver, Status A blue density. The note with it: 3 passes; coupler Y-1, CD-3. As for the experimental part: as §1
Thermal Solvent Test Employing a Yellow Dye Forming Coupler. Three film examples are prepared in a manner analogous to examples 1 and 2 above, using a yellow dye forming coupler, Y-1, and a blue sensitized cubic emulsion in place of M-1 and a green sensitized emulsion, respectively. […]
For all three example films the dye density transferred to the dye-receiverlayer in the absence of a thermal processing step (0-pass) is quite small indicating the absence of significant transfer under aqueous processing. […] For film example 15 in which the interlayer contains both gelatin and the thermal test material, TS-1, there is a substantial transfer of image dye as measured by the blue density. […]

Experiment [3] in a line: heat activated transfer of image dye (coupler M-1, developer CD-3) through gelatin interlayer to polymeric dye receiver, Status A green density. The method, then:
The following 17 examples are prepared to examine the ability of materials to effect the transfer of image dye through intervening layers of gelatin binder into a polymeric dye receiver layer and are described by the coating format shown in FIG. 2. The first layer (FIG. 2, layer 14) contains gelatin binder and the material to be tested as a thermal solvent while the upper layer (FIG. 2, layer 16) contains the image generating chemistry comprising a silver chloride emulsion and a dispersion of a dye generating coupler in a gelatin binder. A third, protective overcoat, layer (FIG. 2, layer 15) containing gelatin and hardener is applied over the first two gelatin test layers.
Examples 1 and 2 describe in detail the preparation of the solutions and dispersions used in these examples. Examples 3 and 4 describe the same film samples processed in a second developer. Example 1 contains no added material in the first gelatin layer. Example 2 is an example of a compound of our invention according to formula I.
Gelatin Interlayer Melt Preparation. This is an interlayer consisting of only gelatin that serves as a control for comparison of the effect of added materials on transfer of heat-transferable dyes through gelatin layers. […]

For `CCCCCCCCCCCCc1ccc(O)cc1` [CS-1], the “transfer of the integral dye density to the receiver layer” value in experiment [1] is recorded as “less than 4%”. For the same molecule, in experiment [2], the “transfer of the integral dye density to receiver” value is listed as “less than 6%”.

In the case of `CCCCCCCCCCS(=O)(=O)c1ccc(O)cc1` [TS-1, 4-n-Decylsulfonylphenol], the “transfer of the dye density in the original image” value in experiment [3] (1-pass) stood at 45%; in experiment [3] (3-pass), 71%.
